Legend:
Type in all cases: cell-based
P. aeruginosa = assay: Broth dilution MIC determination (CLSI) against P. aeruginosa strains
Source text: (§1) Minimum inhibitory concentrations (MICs) for macrolides described herein have been determined for unique strains of S. aureus, S. pneumoniae, S. pyogenes, E. faecalis, E. coli, A. baumannii, K. pneumoniae, P. aeruginosa, and H. influenzae, including several multidrug-resistant strains, with a special focus on macrolide resistant mechanisms. Azithromycin and solithromycin were included as control compounds. CLSI standard procedures for broth dilution MIC determination were used. Data for exemplary compounds described herein is shown in Tables M1-M7 and in Tables N1-N4.

A. baumannii = assay: Broth dilution MIC determination (CLSI) against A. baumannii strains
Source text: as §1

E. coli = assay: Broth dilution MIC determination (CLSI) against E. coli strains
Source text: as §1

S. aureus = assay: Broth dilution MIC determination (CLSI) against S. aureus strains
Source text: as §1

K. pneumoniae = assay: Broth dilution MIC determination (CLSI) against K. pneumoniae strains
Source text: as §1, with “used.” for “used. Data for exemplary compounds described herein is shown in Tables M1-M7 and in Tables N1-N4.”

[1] = P. aeruginosa ATCC27853, strain MP-3 (Table N4)
[2] = P. aeruginosa PAO1, strain MP-7 (Table N4)
[3] = P. aeruginosa mex-oprM-deletion, strain MP-8 (Table N4)
[4] = A. baumannii ATCC 19606, strain MP-15 (Table N4)
[5] = A. baumannii Clinical-AZT low, strain MP-577 (Table N4)
[6] = A. baumannii Clinical-MDR, strain MP-576 (Table N4)
[7] = E. coli ATCC25922, strain MP-4 (Table N4)
[8] = E. coli Clinical, strain MP-541 (Table N4)
[9] = E. coli clinical-cErmB, strain MP-532 (Table N4)
[10] = E. coli tolC, strain MP-9 (Table N4)
[11] = S. aureus ATCC29213, strain MP-12 (Table N4)
[12] = S. aureus BAA 977 iErm, strain MP-17 (Table N4)
[13] = S. aureus Clinical-cErm, strain MP-513 (Table N4)
[14] = S. aureus USA300-msr(a), strain MP-549 (Table N4)
[15] = K. pneumoniae ATCC 10031, strain MP-14 (Table N4)
[16] = K. pneumoniae Clinical, strain MP-548 (Table N4)
[17] = K. pneumoniae Clinical-MDR, strain MP-546 (Table N4)

Measured: MIC

CCC1OC(=O)C(C)C(=O)C(C)C(OC2OC(C)CC(N(C)CCO)C2O)C(C)(OC)CC(C)CN(C)C(C)C2N(CCCCn3cc(-c4cccc(N)c4)nn3)C(=O)OC12C (centres unmarked) [FSM-120419]
16 mg/L: K. pneumoniae; [15]
>64 mg/L: P. aeruginosa; [1] | P. aeruginosa; [2] | P. aeruginosa; [3] | A. baumannii; [4] | A. baumannii; [5] | A. baumannii; [6] | E. coli; [7] | E. coli; [8] | E. coli; [9] | S. aureus; [13] | K. pneumoniae; [16] | K. pneumoniae; [17]
32 mg/L: S. aureus; [11] | S. aureus; [12] | S. aureus; [14]
4 mg/L: E. coli; [10]

CCC1OC(=O)C(C)C(=O)C(C)C(OC2OC(C)CC(N(C)CCO)C2O)C(C)(OC)CC(C)CNC(C)C2N(CCCCn3cc(-c4cccc(N)c4)nn3)C(=O)OC12C (centres unmarked) [FSM-120418]
1 mg/L: E. coli; [10]
32 mg/L: P. aeruginosa; [3] | A. baumannii; [5]
8 mg/L: E. coli; [7] | E. coli; [8] | K. pneumoniae; [15]
64 mg/L: K. pneumoniae; [16]
>64 mg/L: P. aeruginosa; [1] | P. aeruginosa; [2] | A. baumannii; [6] | E. coli; [9] | S. aureus; [13] | K. pneumoniae; [17]
16 mg/L: A. baumannii; [4] | S. aureus; [11] | S. aureus; [12] | S. aureus; [14]

CCC1OC(=O)C(C)C(=O)C(C)C(OC2OC(C)CC(Nc3cnccn3)C2O)C(C)(OC)CC(C)CNC(C)C2N(CCCCn3cc(-c4cccc(N)c4)nn3)C(=O)OC12C (centres unmarked) [FSM-120410]
>64 mg/L: P. aeruginosa; [1] | P. aeruginosa; [2] | P. aeruginosa; [3] | A. baumannii; [4] | A. baumannii; [5] | A. baumannii; [6] | E. coli; [7] | E. coli; [8] | E. coli; [9] | E. coli; [10] | S. aureus; [11] | S. aureus; [12] | S. aureus; [13] | S. aureus; [14] | K. pneumoniae; [15] | K. pneumoniae; [16] | K. pneumoniae; [17]

CCC1OC(=O)C(C)C(=O)C(C)C(OC2OC(C)CC(N(C)CCCS(C)(=O)=O)C2O)C(C)(OC)CC(C)CNC(C)C2N(CCCCn3cc(-c4cccc(N)c4)nn3)C(=O)OC12C (centres unmarked) [FSM-120420]
64 mg/L: P. aeruginosa; [3] | A. baumannii; [5] | E. coli; [7] | S. aureus; [14]
>64 mg/L: P. aeruginosa; [1] | P. aeruginosa; [2] | A. baumannii; [6] | E. coli; [9] | S. aureus; [13] | K. pneumoniae; [16] | K. pneumoniae; [17]
32 mg/L: A. baumannii; [4] | E. coli; [8] | S. aureus; [11] | S. aureus; [12]
2 mg/L: E. coli; [10]
16 mg/L: K. pneumoniae; [15]

Source: US11535643B2, “Macrolides with modified desosamine sugars and uses thereof” (President and Fellows of Harvard College, priority 2015, dated 2022)
